These results are taken from patent US7932255B2, “2-aminocarbonyl substituted piperazine or diaza-cyclic compounds as apoptosis protein inhibitors (lap) modulators” (Novartis AG, priority 2006, dated 2011).

Bounds are passed on as bounds.

T1 sequence (P98170 248-358 limits assumed, species assumed): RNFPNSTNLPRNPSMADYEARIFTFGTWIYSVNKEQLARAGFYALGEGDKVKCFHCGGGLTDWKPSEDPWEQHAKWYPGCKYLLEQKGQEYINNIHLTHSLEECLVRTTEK

The test addresses T1, XIAP (Homo sapiens, UniProt P98170).
T1 construct: GST
In words: Disruption of the Smac peptide-(XIAP)BIR3 protein-protein interaction (Tables 2 and 3). The format is binding. As to conditions: Series A compounds, Table 2; read-out: XIAP IC50. The procedure:
IC50 values for Series A compounds for XIAP. An assay capable of measuring disruption of the Smac peptide-(XIAP)BIR3 protein-protein interaction is established in the art as described in Example 2. In this assay IAP Inhibitor compounds compete with an immobilized Smac peptide for occupancy of the BIR3 binding pocket of XIAP. The rationale for this strategy results from the mutually exclusive nature of either Caspase 9 or Smac binding to the BIR3 pocket.
Assays are performed and IC50 values are calculated as follows: […]
IC50 values are calculated by logarithmic regression analysis of the percentage inhibition of each compound at 4 concentrations (usually 3- or 10-fold dilution series starting at 10 μM). In each experiment, the actual inhibition by reference compound is used for normalization of IC50 values to the basis of an average value of the reference inhibitor: Normalized IC50=measured IC50 average ref. IC50/measured ref. IC50
Activity determinations of compounds herein using the testing method described herein and as are well known in the art, are used with the following test compounds of formula (I). […] “Activity” as used herein is defined as having IC50 values for IAP target inhibition of less than 10 μM. Specifically, in the table:
IC50 values for Series B compounds are provided for XIAP. Assays are performed as described above using methods well known in the art.
In general, IC50 refers to the concentration at which inhibition is half-maximal. Consider “4-Benzyl-1-[3-methyl-2-(2-methylamino-propionylamino)-butyryl]-piperazine-2-carboxylic acid (1,2,3,4-tetrahydro-naphthalen-1-yl)-amide [Compound 1]”, for which the IC50 is less than 10 µM.

Consider `CNC(C)C(=O)NC(C(=O)N1CCN(S(=O)(=O)c2ccccc2)CC1C(=O)NC1CCCc2ccccc21)C(C)C` (stereo not shown) [Compound 2, 4-Benzenesulfonyl-1-[3-methyl-2-(2-methylamino-propionylamino)-butyryl]-piperazine-2-carboxylic acid (1,2,3,4-tetrahydro-naphthalen-1-yl)-amide], for which the IC50 was less than 10 µM.

Consider `CN[C@@H](C)C(=O)N[C@H](C(=O)N1CCN(Cc2cccnc2)C[C@H]1C(=O)NC1CCCc2ccccc21)C(C)C` (stereo partly drawn) [Compound 3, (S)-1-[(S)-3-Methyl-2-((S)-2-methylamino-propionylamino)-butyryl]-4-pyridin-3-ylmethyl-piperazine-2-carboxylic acid (1,2,3,4-tetrahydro-naphthalen-1-yl)-amide], for which the half-maximal inhibitory concentration (IC50) is less than 10 µM.

On to `CN[C@@H](C)C(=O)N[C@H](C(=O)N1CCN(Cc2cccc(Oc3ccccc3)c2)C[C@H]1C(=O)NC1CCCc2ccccc21)C(C)C` (stereo partly drawn) [Compound 4, (S)-1-[(S)-3-Methyl-2-((S)-2-methylamino-propionylamino)-butyryl]-4-(3-phenoxy-benzyl)-piperazine-2-carboxylic acid (1,2,3,4-tetrahydro-naphthalen-1-yl)-amide], for which the IC50 is less than 10 µM.

In the case of `CN[C@@H](C)C(=O)N[C@H](C(=O)N1CCN(C(=O)NCc2ccccc2)C[C@H]1C(=O)NC1CCCc2ccccc21)C(C)C` (stereo partly drawn) [Compound 5, (S)-4-[(S)-3-Methyl-2-((S)-2-methylamino-propionylamino)-butyryl]-piperazine-1,3-dicarboxylic acid 1-benzylamide 3-[(1,2,3,4-tetrahydro-naphthalen-1-yl)-amide]], the IC50 is less than 10 µM.

Turning to `CN[C@@H](C)C(=O)N[C@H](C(=O)N1CCN(Cc2ccc(OC)cc2)C[C@H]1C(=O)NC1CCCc2ccccc21)C(C)C` (stereo partly drawn) [Compound 6, (S)-4-(4-Methoxy-benzyl)-1-[(S)-3-methyl-2-((S)-2-methylamino-propionylamino)-butyryl]-piperazine-2-carboxylic acid (1,2,3,4-tetrahydro-naphthalen-1-yl)-amide], the IC50 was less than 10 µM.

`CN[C@@H](C)C(=O)N[C@H](C(=O)N1CCN(CC2CCCC2)C[C@H]1C(=O)NC1CCCc2ccccc21)C(C)C` (stereo partly drawn) [Compound 7, (S)-4-Cyclopentylmethyl-1-[(S)-3-methyl-2-((S)-2-methylamino-propionylamino)-butyryl]-piperazine-2-carboxylic acid (1,2,3,4-tetrahydro-naphthalen-1-yl)-amide]: the IC50 is less than 10 µM.

Consider `CN[C@@H](C)C(=O)N[C@H](C(=O)N1CCN(CC(C)C)C[C@H]1C(=O)NC1CCCc2ccccc21)C(C)C` (stereo partly drawn) [Compound 8, (S)-4-Isobutyl-1-[(S)-3-methyl-2-((S)-2-methylamino-propionylamino)-butyryl]-piperazine-2-carboxylic acid (1,2,3,4-tetrahydro-naphthalen-1-yl)-amide], for which the IC50 was less than 10 µM.

For `CN[C@@H](C)C(=O)N[C@H](C(=O)N1CCN(Cc2ccncc2)C[C@H]1C(=O)NC1CCCc2ccccc21)C(C)C` (stereo partly drawn) [Compound 9, (S)-1-[(S)-3-Methyl-2-((S)-2-methylamino-propionylamino)-butyryl]-4-pyridin-4-ylmethyl-piperazine-2-carboxylic acid (1,2,3,4-tetrahydro-naphthalen-1-yl)-amide], the IC50 is less than 10 µM.

For `CN[C@@H](C)C(=O)N[C@H](C(=O)N1CCN(Cc2ccc(F)cc2)C[C@H]1C(=O)NC1CCCc2ccccc21)C(C)C` (stereo partly drawn) [Compound 10, (S)-4-(4-Fluoro-benzyl)-1-[(S)-3-methyl-2-((S)-2-methylamino-propionylamino)-butyryl]-piperazine-2-carboxylic acid (1,2,3,4-tetrahydro-naphthalen-1-yl)-amide], the IC50 is less than 10 µM.

For the compound `CN[C@@H](C)C(=O)N[C@H](C(=O)N1CCN(S(=O)(=O)C2CCCCC2)C[C@H]1C(=O)NC1CCCc2ccccc21)C(C)C` (stereo partly drawn) [Compound 11, (S)-4-Cyclohexanesulfonyl-1-[(S)-3-methyl-2-((S)-2-methylamino-propionylamino)-butyryl]-piperazine-2-carboxylic acid (1,2,3,4-tetrahydro-naphthalen-1-yl)-amide], the IC50 is less than 10 µM.

Consider `CN[C@@H](C)C(=O)N[C@H](C(=O)N1CCN(Cc2ccc(C(F)(F)F)cc2)C[C@H]1C(=O)NC1CCCc2ccccc21)C(C)C` (stereo partly drawn) [Compound 12, (S)-1-[(S)-3-Methyl-2-((S)-2-methylamino-propionylamino)-butyryl]-4-(4-trifluoromethyl-benzyl)-piperazine-2-carboxylic acid (1,2,3,4-tetrahydro-naphthalen-1-yl)-amide], for which the IC50 is less than 10 µM.

Regarding `CN[C@@H](C)C(=O)N[C@H](C(=O)N1CCN(C(=O)OCc2ccccc2)C[C@H]1C(=O)NC1CCCc2ccccc21)C(C)C` (stereo partly drawn) [Compound 13, (S)-4-[(S)-3-Methyl-2-((S)-2-methylamino-propionylamino)-butyryl]-3-(1,2,3,4-tetrahydro-naphthalen-1-ylcarbamoyl)-piperazine-1-carboxylic acid benzyl ester], the IC50 is less than 10 µM.

Turning to `CN[C@@H](C)C(=O)N[C@H](C(=O)N1CCN(Cc2ccccc2)C[C@H]1C(=O)NC1CCCc2ccccc21)C(C)C` (stereo partly drawn) [Compound 14, (S)-4-Benzyl-1-[(S)-3-methyl-2-((S)-2-methylamino-propionylamino)-butyryl]-piperazine-2-carboxylic acid (1,2,3,4-tetrahydro-naphthalen-1-yl)-amide], the IC50 is less than 10 µM.

Take `CN[C@@H](C)C(=O)N[C@H](C(=O)N1CCN(Cc2cccc3[nH]ccc23)C[C@H]1C(=O)NC1CCCc2ccccc21)C(C)C` (stereo partly drawn) [Compound 15, (S)-4-(1H-Indol-4-ylmethyl)-1-[(S)-3-methyl-2-((S)-2-methylamino-propionylamino)-butyryl]-piperazine-2-carboxylic acid (1,2,3,4-tetrahydro-naphthalen-1-yl)-amide]: the 50% inhibitory concentration (IC50) is less than 10 µM.

For `CN[C@@H](C)C(=O)N[C@H](C(=O)N1CCN(Cc2ccc(NC(C)=O)cc2)C[C@H]1C(=O)NC1CCCc2ccccc21)C(C)C` (stereo partly drawn) [Compound 16, (S)-4-(4-Acetylamino-benzyl)-1-[(S)-3-methyl-2-((S)-2-methylamino-propionylamino)-butyryl]-piperazine-2-carboxylic acid (1,2,3,4-tetrahydro-naphthalen-1-yl)-amide], the IC50 was less than 10 µM.

As for `CN[C@@H](C)C(=O)N[C@H](C(=O)N1CCN(C(=O)c2ccc(F)cc2)C[C@H]1C(=O)NC1CCCc2ccccc21)C(C)C` (stereo partly drawn) [Compound 17, (S)-4-(4-Fluoro-benzoyl)-1-[(S)-3-methyl-2-((S)-2-methylamino-propionylamino)-butyryl]-piperazine-2-carboxylic acid (1,2,3,4-tetrahydro-naphthalen-1-yl)-amide], the IC50 was less than 10 µM.

For `CN[C@@H](C)C(=O)N[C@H](C(=O)N1CCN(C(=O)CCOC)C[C@H]1C(=O)NC1CCCc2ccccc21)C(C)C` (stereo partly drawn) [Compound 18, (S)-4-(3-Methoxy-propionyl)-1-[(S)-3-methyl-2-((S)-2-methylamino-propionylamino)-butyryl]-piperazine-2-carboxylic acid (1,2,3,4-tetrahydro-naphthalen-1-yl)-amide], the IC50 was less than 10 µM.

Take `CN[C@@H](C)C(=O)N[C@H](C(=O)N1CCN(CC2CCCCC2)C[C@H]1C(=O)NC1CCCc2ccccc21)C(C)C` (stereo partly drawn) [Compound 19, (S)-4-Cyclohexylmethyl-1-[(S)-3-methyl-2-((S)-2-methylamino-propionylamino)-butyryl]-piperazine-2-carboxylic acid (1,2,3,4-tetrahydro-naphthalen-1-yl)-amide]: the IC50 was less than 10 µM.

On to `CN[C@@H](C)C(=O)N[C@H](C(=O)N1CCN(CCC(F)(F)F)C[C@H]1C(=O)NC1CCCc2ccccc21)C(C)C` (stereo partly drawn) [Compound 20, (S)-1-[(S)-3-Methyl-2-((S)-2-methylamino-propionylamino)-butyryl]-4-(3,3,3-trifluoro-propyl)-piperazine-2-carboxylic acid (1,2,3,4-tetrahydro-naphthalen-1-yl)-amide], for which the IC50 was less than 10 µM.

Regarding `CN[C@@H](C)C(=O)N[C@H](C(=O)N1CCN(CCC(C)(C)C)C[C@H]1C(=O)NC1CCCc2ccccc21)C(C)C` (stereo partly drawn) [Compound 21, (S)-4-(3,3-Dimethyl-butyl)-1-[(S)-3-methyl-2-((S)-2-methylamino-propionylamino)-butyryl]-piperazine-2-carboxylic acid (1,2,3,4-tetrahydro-naphthalen-1-yl)-amide], the IC50 is less than 10 µM.

As for `CN[C@@H](C)C(=O)N[C@H](C(=O)N1CCN(Cc2cncs2)C[C@H]1C(=O)NC1CCCc2ccccc21)C(C)C` (stereo partly drawn) [Compound 22, (S)-1-[(S)-3-Methyl-2-((S)-2-methylamino-propionylamino)-butyryl]-4-thiazol-5-ylmethyl-piperazine-2-carboxylic acid (1,2,3,4-tetrahydro-naphthalen-1-yl)-amide], the IC50 was less than 10 µM.
